ChEMBL document CHEMBL3603736, “3-Substituted pyrazoles and 4-substituted triazoles as inhibitors of human 15-lipoxygenase-1” (Bioorg Med Chem Lett, 2015)

Assays:
[1] = molecular target: T1, Polyunsaturated fatty acid lipoxygenase ALOX15 (Homo sapiens, UniProt P16050); conditions: sf9
T1 sequence (P16050 whole entry): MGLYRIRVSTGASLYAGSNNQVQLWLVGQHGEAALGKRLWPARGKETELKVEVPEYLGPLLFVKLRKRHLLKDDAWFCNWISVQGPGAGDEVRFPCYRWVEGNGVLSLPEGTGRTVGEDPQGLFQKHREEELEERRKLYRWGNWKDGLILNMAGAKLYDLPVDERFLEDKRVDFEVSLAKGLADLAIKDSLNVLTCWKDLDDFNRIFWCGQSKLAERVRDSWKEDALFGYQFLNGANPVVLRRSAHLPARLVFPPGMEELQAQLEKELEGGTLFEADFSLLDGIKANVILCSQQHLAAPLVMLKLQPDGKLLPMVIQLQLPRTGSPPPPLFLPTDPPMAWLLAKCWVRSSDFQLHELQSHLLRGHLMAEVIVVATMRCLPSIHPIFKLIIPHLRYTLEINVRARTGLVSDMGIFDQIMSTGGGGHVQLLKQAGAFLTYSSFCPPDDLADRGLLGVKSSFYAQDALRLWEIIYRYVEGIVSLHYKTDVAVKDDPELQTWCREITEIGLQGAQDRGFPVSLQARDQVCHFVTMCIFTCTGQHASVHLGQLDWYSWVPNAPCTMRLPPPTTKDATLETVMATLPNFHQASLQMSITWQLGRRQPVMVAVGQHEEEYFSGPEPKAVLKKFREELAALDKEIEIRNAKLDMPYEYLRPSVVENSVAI
Description: (§1) Inhibition of human 15-LOX-1 expressed in Sf9 cells assessed as reduction in conversion of arachidonic acid to 15-HETE pre-incubated 5 min before arachidonic acid substrate addition by HPLC-UV spectroscopy

[2] = molecular target: T1, Polyunsaturated fatty acid lipoxygenase ALOX15
Description: (§2) Inhibition of 15-LOX-1 in human L1236 cells assessed as reduction in conversion of arachidonic acid to 15-HETE pre-incubated 5 min before arachidonic acid substrate addition by HPLC-UV spectroscopy

[3] = molecular target: T1, Polyunsaturated fatty acid lipoxygenase ALOX15; conditions: l1236
Description: as §2

[4] = molecular target: T1, Polyunsaturated fatty acid lipoxygenase ALOX15; remark: listed apart in the source
Description: as §1

IC50 [1]	IC50 [2]	IC50 [3]	IC50 [4]	SMILES
Not Active				O=C(NCc1ccccc1)c1cc[nH]n1
Not Active	3290 nM			O=C(Nc1ccc(F)cc1Cl)c1cc([N+](=O)[O-])[nH]n1
		Not Active		O=C(Nc1ccc(F)cc1Cl)c1n[nH]cc1-c1ccccc1
		Not Active		O=C(Nc1cccnc1)c1ccn[nH]1
	270 nM			O=C(Nc1ccc(F)cc1)c1cc[nH]n1
	392 nM		6.98 µM	O=C(Nc1ccccc1Cl)c1cn[nH]n1
	616 nM		5.9 µM	O=C(Nc1ccc(F)cc1Cl)c1n[nH]cc1[N+](=O)[O-]
	3410 nM		1.21 µM	O=C(Nc1ccccn1)c1cc[nH]n1
		Not Active		CS(=O)(=O)Nc1c[nH]nc1C(=O)Nc1ccc(F)cc1Cl
Not Active		Not Active		CN(C(=O)c1cc[nH]n1)c1ccccc1Cl

SMILES	IC50 [1]	IC50 [2]	IC50 [3]	IC50 [4]
O=C(Nc1cnc2ccccc2c1)c1cn[nH]n1		1020 nM		
